Laboratory results taken from patent publication US20220016101A1 (ACADIA Pharmaceuticals Inc., priority 2018, published 2022).
Read-outs that look alike come from different tables or passages of the source.

Legend:
[1] = biological target: alpha1 adrenergic receptor; assay: Receptor profile: affinity (Ki) at α1; assay type: binding; details: other noteworthy target; data on file
[2] = biological target: dopamine transporter (Homo sapiens, UniProt Q01959); assay: Receptor profile: affinity (Ki) at DAT; assay type: binding; details: data on file
[3] = biological target: norepinephrine transporter (Homo sapiens, UniProt P23975); assay: Receptor profile: affinity (Ki) at NET; assay type: binding; details: data on file
[4] = biological target: serotonin transporter (Homo sapiens, UniProt P31645); assay: Receptor profile: affinity (Ki) at SERT; assay type: binding; details: data on file
[5] = biological target: T1, 5-HT2C (Homo sapiens, UniProt P28335); assay: Receptor profile: affinity (Ki) at 5-HT2C; assay type: binding; details: data on file
T1 sequence (P28335 33-458): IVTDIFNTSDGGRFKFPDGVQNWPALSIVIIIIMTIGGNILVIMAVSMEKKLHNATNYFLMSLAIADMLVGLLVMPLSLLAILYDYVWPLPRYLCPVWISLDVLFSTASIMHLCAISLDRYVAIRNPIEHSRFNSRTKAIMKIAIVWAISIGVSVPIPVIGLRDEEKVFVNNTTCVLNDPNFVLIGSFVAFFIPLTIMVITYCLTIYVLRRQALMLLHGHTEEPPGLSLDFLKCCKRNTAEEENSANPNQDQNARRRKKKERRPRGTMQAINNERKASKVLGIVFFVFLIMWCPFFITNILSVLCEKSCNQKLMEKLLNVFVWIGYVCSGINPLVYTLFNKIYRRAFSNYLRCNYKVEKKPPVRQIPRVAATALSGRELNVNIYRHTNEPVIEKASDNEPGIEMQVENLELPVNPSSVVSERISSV

[6] = biological target: 5-HT2A (Homo sapiens, UniProt P28223); assay: Receptor profile: affinity (Ki) at 5-HT2A; assay type: binding; details: data on file
[7] = biological target: alpha2 adrenergic receptor; details: read-out: affinity (Ki) α2; other noteworthy target; literature sources; cited from earlier work
[8] = biological target: T1, 5-HT2C; details: literature sources; read-out: affinity (Ki) 5-HT2C; cited from earlier work
[9] = biological target: T2, D4 (Homo sapiens, UniProt P21917); details: other noteworthy target; literature sources; read-out: affinity (Ki) D4; cited from earlier work
T2 sequence (P21917 1-419): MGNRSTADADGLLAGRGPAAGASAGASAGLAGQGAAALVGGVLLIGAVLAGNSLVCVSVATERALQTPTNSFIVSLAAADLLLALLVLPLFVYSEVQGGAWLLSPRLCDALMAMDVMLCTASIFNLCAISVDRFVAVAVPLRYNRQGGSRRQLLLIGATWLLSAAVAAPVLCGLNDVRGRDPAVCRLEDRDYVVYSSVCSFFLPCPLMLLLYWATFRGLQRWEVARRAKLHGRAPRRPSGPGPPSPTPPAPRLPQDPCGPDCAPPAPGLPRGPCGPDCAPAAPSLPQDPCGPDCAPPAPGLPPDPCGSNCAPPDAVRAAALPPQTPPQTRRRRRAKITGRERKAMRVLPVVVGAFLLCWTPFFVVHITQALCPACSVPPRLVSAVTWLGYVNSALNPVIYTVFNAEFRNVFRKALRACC

[10] = test system: patients with MDD; details: Baldwin et al (2013); printed as x to 1; cited from earlier work
[11] = biological target: T3, 5-HT3 (Homo sapiens, UniProt P46098); details: other noteworthy target; literature sources; read-out: affinity (Ki) 5-HT3; cited from earlier work
T3 sequence (P46098 24-478): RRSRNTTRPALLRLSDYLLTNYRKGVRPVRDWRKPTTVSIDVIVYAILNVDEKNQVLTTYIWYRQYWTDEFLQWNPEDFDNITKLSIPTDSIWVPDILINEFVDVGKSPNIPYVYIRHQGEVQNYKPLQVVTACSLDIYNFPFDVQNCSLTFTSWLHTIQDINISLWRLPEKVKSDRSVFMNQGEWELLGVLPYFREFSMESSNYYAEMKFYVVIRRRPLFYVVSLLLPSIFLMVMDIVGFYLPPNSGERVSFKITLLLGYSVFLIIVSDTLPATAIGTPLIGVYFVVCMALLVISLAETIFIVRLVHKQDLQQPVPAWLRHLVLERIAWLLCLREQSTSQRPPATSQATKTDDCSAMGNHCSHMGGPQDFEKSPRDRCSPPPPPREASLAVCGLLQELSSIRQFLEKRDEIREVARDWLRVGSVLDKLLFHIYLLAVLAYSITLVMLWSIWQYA

dopamine transporter, sequence (Q01959 whole entry): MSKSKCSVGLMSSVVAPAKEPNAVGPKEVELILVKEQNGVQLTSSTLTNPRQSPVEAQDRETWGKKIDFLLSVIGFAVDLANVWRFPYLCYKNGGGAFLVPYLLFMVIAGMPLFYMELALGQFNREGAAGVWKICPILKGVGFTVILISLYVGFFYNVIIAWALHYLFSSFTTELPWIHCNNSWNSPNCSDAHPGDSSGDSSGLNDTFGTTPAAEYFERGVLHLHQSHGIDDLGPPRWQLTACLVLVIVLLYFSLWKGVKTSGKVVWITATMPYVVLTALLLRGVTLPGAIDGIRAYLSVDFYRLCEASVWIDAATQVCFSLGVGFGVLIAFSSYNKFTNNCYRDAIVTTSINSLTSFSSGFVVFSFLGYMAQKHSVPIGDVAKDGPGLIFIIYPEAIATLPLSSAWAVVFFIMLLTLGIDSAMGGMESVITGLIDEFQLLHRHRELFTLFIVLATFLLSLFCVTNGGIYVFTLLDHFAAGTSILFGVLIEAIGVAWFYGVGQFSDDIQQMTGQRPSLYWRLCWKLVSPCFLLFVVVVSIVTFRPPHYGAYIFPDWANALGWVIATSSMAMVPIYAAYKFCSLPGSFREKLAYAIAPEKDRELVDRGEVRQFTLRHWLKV
serotonin transporter, sequence (P31645 whole entry): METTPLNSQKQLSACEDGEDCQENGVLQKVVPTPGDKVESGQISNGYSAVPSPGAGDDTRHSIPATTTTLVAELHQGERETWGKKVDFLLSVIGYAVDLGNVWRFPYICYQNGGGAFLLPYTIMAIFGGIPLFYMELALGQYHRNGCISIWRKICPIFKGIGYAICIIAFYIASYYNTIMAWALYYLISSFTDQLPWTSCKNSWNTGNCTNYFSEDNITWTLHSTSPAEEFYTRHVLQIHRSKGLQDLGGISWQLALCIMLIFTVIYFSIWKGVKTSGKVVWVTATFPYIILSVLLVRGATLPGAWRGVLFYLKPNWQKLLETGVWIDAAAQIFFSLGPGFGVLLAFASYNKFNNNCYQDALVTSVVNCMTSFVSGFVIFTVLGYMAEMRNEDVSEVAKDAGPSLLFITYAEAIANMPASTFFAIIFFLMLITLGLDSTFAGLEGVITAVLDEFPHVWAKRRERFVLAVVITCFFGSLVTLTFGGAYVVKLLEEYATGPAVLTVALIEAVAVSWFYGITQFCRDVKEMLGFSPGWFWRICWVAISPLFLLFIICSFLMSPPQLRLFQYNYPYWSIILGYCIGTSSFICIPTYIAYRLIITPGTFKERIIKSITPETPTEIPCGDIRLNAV
norepinephrine transporter, sequence (P23975 whole entry, species assumed): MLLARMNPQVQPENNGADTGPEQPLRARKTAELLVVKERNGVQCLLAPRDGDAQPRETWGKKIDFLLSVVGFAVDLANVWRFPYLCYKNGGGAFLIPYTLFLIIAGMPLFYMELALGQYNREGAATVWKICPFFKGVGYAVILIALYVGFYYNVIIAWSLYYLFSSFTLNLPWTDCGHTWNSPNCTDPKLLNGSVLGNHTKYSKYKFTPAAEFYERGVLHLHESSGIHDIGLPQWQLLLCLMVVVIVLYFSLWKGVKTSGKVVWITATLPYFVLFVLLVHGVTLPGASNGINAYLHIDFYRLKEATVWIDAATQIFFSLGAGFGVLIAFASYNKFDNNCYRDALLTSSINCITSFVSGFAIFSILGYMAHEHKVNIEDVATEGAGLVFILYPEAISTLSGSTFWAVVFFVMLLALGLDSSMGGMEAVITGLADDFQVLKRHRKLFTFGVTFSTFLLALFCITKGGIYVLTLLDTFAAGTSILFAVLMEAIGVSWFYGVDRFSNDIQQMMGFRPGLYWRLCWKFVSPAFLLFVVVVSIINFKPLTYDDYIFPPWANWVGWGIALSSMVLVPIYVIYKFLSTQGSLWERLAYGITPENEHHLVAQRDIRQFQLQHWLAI
5-HT2A, sequence (P28223 whole entry, species assumed): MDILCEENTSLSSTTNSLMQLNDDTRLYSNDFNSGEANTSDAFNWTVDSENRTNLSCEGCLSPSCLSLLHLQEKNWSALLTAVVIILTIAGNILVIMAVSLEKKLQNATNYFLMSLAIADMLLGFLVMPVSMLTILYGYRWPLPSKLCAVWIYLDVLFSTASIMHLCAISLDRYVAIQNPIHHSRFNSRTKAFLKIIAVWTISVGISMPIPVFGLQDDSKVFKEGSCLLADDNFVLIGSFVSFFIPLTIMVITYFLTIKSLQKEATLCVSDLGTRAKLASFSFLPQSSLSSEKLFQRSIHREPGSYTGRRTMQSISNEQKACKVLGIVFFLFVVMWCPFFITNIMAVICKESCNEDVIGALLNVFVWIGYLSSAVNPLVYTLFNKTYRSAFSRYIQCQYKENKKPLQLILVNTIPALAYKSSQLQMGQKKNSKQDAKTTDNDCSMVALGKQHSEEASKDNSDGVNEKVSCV

Row | Compound | Ki [2] | Ki [3] | Ki [4] | Ki [5] | Ki [7] | Ki [8] | other results
1 | O=C(c1ccc(F)cc1)C1CCN(CCn2c(=O)[nH]c3ccccc3c2=O)CC1 [KET, ketanserin] | – | – | – | – | – | – | Ki [1]: 15 to 20 nM
2 | NC(=O)C1(N2CCCCC2)CCN(CCCC(=O)c2ccc(F)cc2)CC1 [PIP, pipamperone] | – | – | – | – | 35 nM | 120 nM | Ki [9]: 5 nM
3 | COc1ccc(C(CN(C)C)C2(O)CCCCC2)cc1 (centres unmarked) [venlafaxine] | – | – | – | – | – | – | odds ratio (drug to placebo) for sexual dysfunction [10]: 24.42
4 | CN1CCN2c3ncccc3Cc3ccccc3C2C1 (centres unmarked) [MIRT, mirtazapine] | – | – | – | – | 15 to 20 nM | 40 nM | Ki [11]: 10 nM

Second part, led by results:

Row | Ki [2] | Ki [3] | Ki [4] | Ki [5] | Compound | Ki [7] | Ki [8] | other results
5 | > 1000 nM | > 1000 nM | > 1000 nM | 3 nM | Cc1nc2sccn2c(=O)c1CCN1CCC(=C(c2ccc(F)cc2)c2ccc(F)cc2)CC1 [RIT, ritanserin] | – | – | –
6 | > 1000 nM | > 1000 nM | > 1000 nM | > 1000 nM | N#Cc1c[nH]c2c(C(=O)N3CCN(CCc4ccc(F)cc4)CC3)cccc12 [PRUV, pruvanserin] | – | – | Ki [6]: 0.7 nM
